The results in this text go back to patent US20250195530A1, “POLQ INHIBITORS” (ASTRAZENECA AB, priority 2022, published 2025).

Read-outs that look alike come from different tables or passages of the source.

For this test, the system named is DLD-1 BRCA2−/− cells. Nature of the test: Homologous recombination synthetic lethal inhibition of proliferation, DLD-1 BRCA2-/- (Cell Titre Glo 3D). The format is cell-based. Conditions: for IC50: Homo sapiens. The text has this:
This assay identifies anti-proliferative effects of POLQ compounds in the homologous recombination deficient colorectal cell line DLD-1 BRCA2−/− over 8-9 population doublings (7 days for DLD-1 and 12 days for DLD-1 BRCA2−/−). DLD1 BRCA2 wt are used as a control to detect cell toxic effects not specific to homologous recombination deficiency.
DLD-1 BRCA2−/− and DLD-1 cells were kept in continuous culture in Assay Medium (RPMI 1640 phenol red free (Sigma R7509) containing 1% GlutaMAX (Gibco 35050) and 10% Foetal Bovine Serum (Gibco 10270-106)). On the day of the assay cells in culture of ˜80-90% confluent were used. Cell monolayers were washed with 10 mL PBS, then removed and added 2 mL TrypLE Express (Gibco 12604). The cells with TrypLE Express were incubated for 5 minutes in cell culture incubator and then the detached cells resuspend in 15 mL Assay Medium. Cells were counted using a ViCell and the cell images were monitored for clumps of cells, ideally they should be single or <3 cell clusters. The cells were diluted to 3,000 cells/mL of DLD-1 BRCA2−/− and 1,500 cells/mL of DLD-1 in Assay Medium and 100 μL added per well of transparent bottomed, black, tissue culture-treated 96-well plates (CoStar, No. 3904) Assay Ready Plates. The Assay Ready Plates contain a 10 point 10 μM to 0.51 nM dose range with three-fold dilutions in DMSO with a final volume of 100 nL. The plates were incubated at 37° C. with 5% C02 for 6 days. On day 6, 100 μL/well of Assay Medium was added to duplicate Assay Ready Plates. 90 μL of culture medium was removed from the cell plates and replenished with the Assay Media and compounds from the duplicate Assay Ready Plates using the Bravo. The plates were further incubated at 37° C. with 5% CO2. On day 7 the plates containing DLD-1 and Cell Titre Glo 3D (Promega G9683) were equilibrated to room temperature, then 60 μL of Cell Titre Glo 3D was added per well and incubated on a shaking platform for 30 min. Plates were read on the Envision measuring luminescence for 1 second per well. On day 12 the plates containing DLD-1 BRCA2−/− cells and Cell Titre Glo 3D (Promega G9683) were equilibrated to room temperature, then 60 μL Cell Titre Glo 3D added per well and incubated on a shaking platform for 30 min. Plates were read on the Envision measuring luminescence for 1 second per well. The data was exported into a suitable software package (such as Genedata) to perform curve fitting analysis. Inhibition of cell proliferation was expressed as an IC5o value and was determined by calculation of the concentration of compound that was required to give a 50% reduction of the average maximum Total Intensity signal.

Where [1] appears, read: DLD-1, first proliferation column (c5), DLD-1 BRCA2-/-, read-out: POLQ PD Prolif Lumin (converted).
The mark [2] stands for this setting: DLD-1, DLD-1 BRCA2-/- proliferation, column head only partly shown, read-out: POLQ PD Prolif Lumin (converted).
[3] abbreviates: DLD-1, first proliferation column, DLD-1 BRCA2-/-, read-out: POLQ PD Prolif Lumin (converted).
Where [4] appears, read: DLD-1, first proliferation column (c5), taken as DLD-1 BRCA2-/-, read-out: POLQ PD Prolif Lumin (converted).
[5] abbreviates: DLD-1, DLD-1 BRCA2 −/− cells, mean, read-out: POLQ PD Prolif Lumin BRCA2 −/− mean pIC50 (converted).
Where [6] appears, read: DLD-1, DLD-1 BRCA2 −/−, mean, read-out: POLQ PD Prolif Lumin BRCA2 −/− mean pIC50 (converted).
Setting [7] is: DLD-1, proliferation, luminescence, taken as DLD-1 BRCA2-/-, read-out: POLQ PD Prolif Lumin (converted).

With `Cc1ccnc(Cn2c(-c3ccc(OC[C@H]4CCO4)cc3Cl)nc3c(OC4(C)CC4)ncnc32)c1` [Example T194, (R)-8-(2-chloro-4-(oxetan-2-ylmethoxy)phenyl)-6-(1-methylcyclopropoxy)-9-((4-methylpyridin-2-yl)methyl)-9H-purine], the IC50 under setting [1] was 251 nM.

In the case of `CCNC(=O)Cc1ccc(-c2nc3c(OC4(C)CC4)ncnc3n2Cc2cc(C)ccn2)c(Cl)c1` [Example T213, 2-(3-chloro-4-(6-(1-methylcyclopropoxy)-9-((4-methylpyridin-2-yl)methyl)-9H-purin-8-yl)phenyl)-N-ethylacetamide], the IC50 under setting [2] was 251 nM.

Consider `Cc1ccc(C)c(Cn2c(-c3ccc(OCCC(C)C(=O)O)cc3Cl)nc3c(OC4(C)CC4)ncnc32)c1` (single isomer, unassigned) [Example T573, 4-(3-chloro-4-(9-(2,5-dimethylbenzyl)-6-(1-methylcyclopropoxy)-9H-purin-8-yl)phenoxy)-2-methylbutanoic acid], for which, under setting [3], the IC50 was 501 nM.

For the compound `Cc1ccnc(Cn2c(-c3ccc(CC(=O)N4CC(N5CCC5)C4)cc3Cl)nc3c(OC4(C)CC4)ncnc32)c1` [Example T603, 1-([1,3′-biazetidin]-1′-yl)-2-(3-chloro-4-(6-(1-methylcyclopropoxy)-9-((4-methylpyridin-2-yl)methyl)-9H-purin-8-yl)phenyl)ethan-1-one], under setting [3], the IC50 is 794 nM.

For `Cc1ccnc(Cn2c(-c3ccc(C(=O)N[C@H](C)CCO)cc3Cl)nc3c(OC4(C)CC4)ncnc32)c1` [Example T364, (R)-3-chloro-N-(4-hydroxybutan-2-yl)-4-(6-(1-methylcyclopropoxy)-9-((4-methylpyridin-2-yl)methyl)-9H-purin-8-yl)benzamide], under setting [4], the IC50 is 794 nM.

In the case of `Cc1ccnc(Cn2c(-c3ccc(N4CCCNCC4)cc3Cl)nc3c(OC4(C)CC4)ncnc32)c1` [Example T384, 8-(2-chloro-4-(1,4-diazepan-1-yl)phenyl)-6-(1-methylcyclopropoxy)-9-((4-methylpyridin-2-yl)methyl)-9H-purine], the IC50 under setting [4] was 398 nM.

With `Cc1nn(C)cc1Cn1c(-c2ccc(CC(N)=O)cc2Cl)nc2c(OC3(C)CC3)ncnc21` [Example T33, 2-(3-chloro-4-(9-((1,3-dimethyl-1H-pyrazol-4-yl)methyl)-6-(1-methylcyclopropoxy)-9H-purin-8-yl)phenyl)acetamide], the IC50 under setting [5] was > 10000 nM.

Regarding `CC(COc1ccc(-c2nc3c(OC4(C)CC4)ncnc3n2Cc2ccccc2C#N)c(Cl)c1)CC(=O)O` (racemic) [Example U25, 4-(3-chloro-4-(9-(2-cyanobenzyl)-6-(1-methylcyclopropoxy)-9H-purin-8-yl)phenoxy)-3-methylbutanoic acid], the IC50 under setting [6] is 398 nM.

As for `Cc1ccnc(Cn2c(-c3ccc(C(=O)N4CC[C@@H](CO)C4)cc3Cl)nc3c(OC4(C)CC4)ncnc32)c1` [Example T464, (R)-(3-chloro-4-(6-(1-methylcyclopropoxy)-9-((4-methylpyridin-2-yl)methyl)-9H-purin-8-yl)phenyl)(3-(hydroxymethyl)pyrrolidin-1-yl)methanone], under setting [7], the IC50 was 1580 nM.

In the case of `CC1(Oc2ncnc3c2nc(-c2ccc(C(=O)O)cc2Cl)n3Cc2cccc(Cl)c2)CC1` [Example T11, 3-chloro-4-(9-(3-chlorobenzyl)-6-(1-methylcyclopropoxy)-9H-purin-8-yl)benzoic acid], under setting [5], the IC50 was 794 nM.

Consider `COc1ccc(F)cc1Cn1c(-c2cccc(OCC[C@H](C)C(=O)O)c2Cl)nc2c(OC3(C)CC3)ncnc21` [Example U72, (S)-4-(2-chloro-3-(9-(5-fluoro-2-methoxybenzyl)-6-(1-methylcyclopropoxy)-9H-purin-8-yl)phenoxy)-2-methylbutanoic acid], for which the IC50 under setting [6] was 1.58 nM.

`Cc1ccnc(Cn2c(-c3ccc(C(=O)N(C)CC4(O)CC4)cc3Cl)nc3c(OC4(C)CC4)ncnc32)c1` [Example T462, 3-chloro-N-((1-hydroxycyclopropyl)methyl)-N-methyl-4-(6-(1-methylcyclopropoxy)-9-((4-methylpyridin-2-yl)methyl)-9H-purin-8-yl)benzamide]: the IC50 under setting [7] is 1580 nM.

Take `C[C@@H](OCCOc1ccc(-c2nc3c(OC4(C)CC4)ncnc3n2Cc2cccc(Cl)c2)c(Cl)c1)C(=O)O` [Example T306, (R)-2-(2-(3-chloro-4-(9-(3-chlorobenzyl)-6-(1-methylcyclopropoxy)-9H-purin-8-yl)phenoxy)ethoxy)propanoic acid]: the IC50 under setting [4] was 794 nM.

As to `Cc1ccnc(Cn2c(-c3ccc(OCC(=O)NC4CC(O)C4)cc3Cl)nc3c(OC4(C)CC4)ncnc32)c1` (stereo not shown) [Example T479, 2-(3-chloro-4-(6-(1-methylcyclopropoxy)-9-((4-methylpyridin-2-yl)methyl)-9H-purin-8-yl)phenoxy)-N-(3-hydroxycyclobutyl)acetamide], the IC50 under setting [7] is 398 nM.

On to `Cc1ccnc(Cn2c(-c3ccc(C(=O)NCCCO)cc3Cl)nc3c(OC4(C)CC4)ncnc32)c1` [Example T217, 3-chloro-N-(3-hydroxypropyl)-4-(6-(1-methylcyclopropoxy)-9-((4-methylpyridin-2-yl)methyl)-9H-purin-8-yl)benzamide], for which the IC50 under setting [2] is 1000 nM.

Consider `Cc1c(Cn2c(-c3ccc(OCCC(C)C(=O)O)cc3Cl)nc3c(OC4(C)CC4)ncnc32)cccc1C(F)(F)F` (single isomer, unassigned) [Example T534, 4-(3-chloro-4-(9-(2-methyl-3-(trifluoromethyl)benzyl)-6-(1-methylcyclopropoxy)-9H-purin-8-yl)phenoxy)-2-methylbutanoic acid], for which the IC50 under setting [1] is 3160 nM.

Regarding `Cc1nnc(Cn2c(-c3ccc(CC(N)=O)cc3Cl)nc3c(OC4(C)CC4)ncnc32)o1` [Example T2, 2-(3-chloro-4-(9-((5-methyl-1,3,4-oxadiazol-2-yl)methyl)-6-(1-methylcyclopropoxy)-9H-purin-8-yl)phenyl)acetamide], the IC50 under setting [5] was > 10000 nM.

For the compound `CC1(Oc2ncnc3c2nc(-c2ccc(OCCCc4nnn[nH]4)cc2Cl)n3Cc2cccc(Cl)c2)CC1` [Example T164, 8-(4-(3-(1H-tetrazol-5-yl)propoxy)-2-chlorophenyl)-9-(3-chlorobenzyl)-6-(1-methylcyclopropoxy)-9H-purine], the IC50 under setting [1] is 794 nM.

For `CC1(Oc2ncnc3c2nc(-c2ccc(O[C@H]4CC[C@@H](C(=O)O)CC4)cc2Cl)n3Cc2cc(Cl)ccc2F)CC1` [Example U44, (1s,4s)-4-(3-chloro-4-(9-(5-chloro-2-fluorobenzyl)-6-(1-methylcyclopropoxy)-9H-purin-8-yl)phenoxy)cyclohexane-1-carboxylic acid], under “DLD-1 BRCA2 −/−, mean”, the “POLQ PD Prolif Lumin BRCA2 −/− mean pIC50” value came to 7.2.

For `CC(CCOc1ccc(-c2nc3c(OC4(C)CC4)ncnc3n2Cc2ccccc2F)c(Cl)c1)C(=O)O` (racemic) [Example U5, 4-(3-chloro-4-(9-(2-fluorobenzyl)-6-(1-methylcyclopropoxy)-9H-purin-8-yl)phenoxy)-2-methylbutanoic acid], under setting [6], the IC50 was 316 nM.

As for `Cc1ccnc(Cn2c(-c3ccc(N4CCN5CCC[C@H]5C4)cc3Cl)nc3c(OC4(C)CC4)ncnc32)c1` [Example T585, (S)-8-(2-chloro-4-(hexahydropyrrolo[1,2-a]pyrazin-2(1H)-yl)phenyl)-6-(1-methylcyclopropoxy)-9-((4-methylpyridin-2-yl)methyl)-9H-purine], under setting [3], the IC50 was 200 nM.

Take `CC(CCOc1ccc(-c2nc3c(OC4(C)CC4)ncnc3n2Cc2cccc(Cl)c2)c(Cl)c1)C(=O)O` (racemic) [Example T291, 4-(3-chloro-4-(9-(3-chlorobenzyl)-6-(1-methylcyclopropoxy)-9H-purin-8-yl)phenoxy)-2-methylbutanoic acid]: under setting [2], the IC50 was 158 nM.
